Data set [1] deals with human histamine 3 receptor (hH3R) (Homo sapiens (Human), UniProt Q9Y5N1). Nature of the data set: Binding affinity of human histamine 3 receptor (hH3R), [3H] labeled N-α-methylhistamine displacement. The following applies: hH3R-overexpressed cell membrane, [3H] N-α-methylhistamine. As for the experimental part: 10 μL of the prepared compound solution was allocated in each well of a 96-well plate, and then 10 μL of 200 μM (R)(−)-α-methylhistamine (RaMH) diluted with analysis buffer and 1% of DMSO were transferred to each well to calculate non-specific binding and total binding degree. 15 μg of human histamine 3 receptor-overexpressed cell membrane (PerkinElmer) was diluted with 180 μL of analysis buffer solution (50 mM tris-HCl pH 7.4, 5 mM MgCl2), and that was transferred to each well. [^3H] labeled Na-methylhistamine (PerkinElmer) was diluted into […], 10 μL of that was added to each well, and then it was kept in a 27° C. incubator for 30 minutes. After the reaction, 200 μL of the mixture was transferred to a glass fiber plate in which 0.5% polyethylene amine was presoaked, and then non-binding [^3H] labeled Na-methylhistamine was removed in vacuum. After 5 times washing with 200 μL of washing buffer solution (50 mM tris-HCl, pH 7.4), the plate was dried in a 37° C. oven for 18 hours. 100 μL of betascint cocktail solution was added to each well, and after 1 hour CPM of [^3H] labeled N-α-methylhistamine was measured by using Wallac beta-counter TriLux. The binding affinity (IC50) of the human histamine 3 receptor for the present invention was analyzed by an Excel program, and the results of analysis are shown in Table 2.
Sequence of human histamine 3 receptor (hH3R) (Q9Y5N1 whole entry): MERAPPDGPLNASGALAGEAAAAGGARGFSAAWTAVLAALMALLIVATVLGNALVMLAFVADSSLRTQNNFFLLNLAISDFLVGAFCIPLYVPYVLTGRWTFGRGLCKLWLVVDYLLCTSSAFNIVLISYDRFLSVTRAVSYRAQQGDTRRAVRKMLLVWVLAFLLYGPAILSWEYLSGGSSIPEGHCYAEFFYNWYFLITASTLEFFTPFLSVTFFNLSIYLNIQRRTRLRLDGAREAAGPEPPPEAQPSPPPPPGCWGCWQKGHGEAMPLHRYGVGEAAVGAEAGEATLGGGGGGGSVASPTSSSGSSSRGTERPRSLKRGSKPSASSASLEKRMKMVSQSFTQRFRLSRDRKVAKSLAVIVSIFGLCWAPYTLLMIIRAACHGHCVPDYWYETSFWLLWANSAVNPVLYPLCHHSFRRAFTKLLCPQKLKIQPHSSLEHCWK

Data set [2] in a line: Metabolic stability in mouse microsome. The following applies: mouse microsome 1 mg/mL, 5 μM compound, 1 mM NADPH.
Data set [3] in a line: Metabolic stability in human microsome. The conditions noted are these: human microsome 1 mg/mL, 5 μM compound, 1 mM NADPH.
Data set [4] deals with human histamine 4 receptor (hH4R) (Homo sapiens (Human), UniProt Q9H3N8). Nature of the data set: Binding affinity of human histamine 4 receptor (hH4R), [3H] labeled histamine displacement. The conditions noted are these: hH4R-overexpressed cell membrane, [3H] histamine. On the procedure:
20 μL of the prepared compound solution was transferred to each well of a 96-well plate, and then 20 μL of 100 μM histamine diluted with analysis buffer solution and 1% DMSO were transferred to each well to calculate non-specific binding and total binding degree. 25 μg of human histamine 4 receptor-overexpressed cell membrane (PerkinElmer) was diluted into 160 μL of analysis buffer solution and that was transferred to each well. [^3H] labeled histamine (PerkinElmer) was diluted into 1 μM concentration, 20 μL was allocated in each well, and then it was kept in a 27° C. incubator for 30 minutes. After the reaction, 200 μL of the mixture was transferred to a glass fiber plate in which 0.5% polyethylene amine was presoaked, and then non-binding [^3H] labeled histamine was removed in vacuum. After 4 times washing with 200 μL of washing buffer solution (50 mM tris-HCl, pH 7.4), the plate was dried in a 37° C. oven for 18 hours. 100 μL of betascint cocktail solution was added to each well, and after 1 hour CPM (count per minute) value of [^3H] labeled histamine was measured by using Wallac beta-counter TriLux.

A short description of data set [5]: Solubility in artificial gastrointestinal tract solution. It is filed as physicochemical. The conditions noted are these: artificial gastrointestinal tract solution, thermodynamic from solid; for solubility at 1 h: fassgf or other biorelevant, first solution pH 1.2, 2 mg/mL sample, 37° C. 1 hour; for solubility at 2 h: fassif, second solution pH 6.5, 2 mg/mL sample, 37° C. 2 hours. As for the experimental part:
2.0 g of sodium chloride was added in 7.0 mL of 37% of hydrochloric acid and water to make the total volume of 1 L. The pH was adjusted to exactly 1.2 with 1N sodium hydroxide or 1N hydrochloric acid. A small amount (20 mL) of this solution was taken and added in 25 μL of triton X-100 to make the total volume of 25 mL.
0.348 g sodium hydroxide, 3.438 g NaH2PO4, 6.186 g sodium chloride and water were added to make the total volume of 1 L. The pH was adjusted to exactly 6.5 with 1N sodium hydroxide or 1N hydrochloric acid. A small amount (20 mL) of this solution was taken and 41.25 mg of sodium taurocholate hydrate and 25 μL of 750 mM lecithin dissolved in ethanol was added to make the total volume of 25 mL.
The heated test sample solutions were filtered to remove undissolved compounds therein. Finally, 100 μL of the completely compound-dissolved solution was sampled and 100 μL of CH3CN was added thereto to make the test sample solution. For each analysis of the test sample solution, the solubility was measured by using liquid chromatography.

Structures are written as SMILES. In brackets after ≈: the same amount, converted by molar mass.

Sequence of human histamine 4 receptor (hH4R) (Q9H3N8 whole entry): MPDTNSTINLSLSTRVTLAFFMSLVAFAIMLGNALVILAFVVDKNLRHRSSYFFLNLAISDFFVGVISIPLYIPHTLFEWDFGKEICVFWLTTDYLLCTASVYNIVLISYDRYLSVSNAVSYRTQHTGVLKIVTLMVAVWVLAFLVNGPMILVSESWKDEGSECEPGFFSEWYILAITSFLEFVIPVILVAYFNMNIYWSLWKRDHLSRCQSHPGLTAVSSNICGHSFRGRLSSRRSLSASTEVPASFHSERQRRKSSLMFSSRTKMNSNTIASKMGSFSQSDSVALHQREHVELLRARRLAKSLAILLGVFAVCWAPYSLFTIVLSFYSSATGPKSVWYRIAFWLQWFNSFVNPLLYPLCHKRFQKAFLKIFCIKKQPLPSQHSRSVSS

In general, IC50 refers to the concentration that inhibits the measured activity by half. On to `CN1CCN(c2nc3ncc(C#N)cc3n3cnnc23)CC1` [Compound 13, 4-(4-Methylpiperazin-1-yl)pyrido[2,3-e][1,2,4]triazolo[4,3-a]pyrazin-8-carbonitrile], for which the IC50 was more than 100000 nM in data set [1] and 238 nM in data set [4]. In data set [2], the “Metabolic stability (CLh. int), Mouse” value is 3070 µL/min/mg. In addition, the “Metabolic stability (CLh. int), Human” value in data set [3] is 2710 µL/min/mg.
In the case of `CN1CCN(c2nc3nc(Cl)c(Cl)cc3n3cnnc23)CC1` [Compound 17, 7,8-Dichloro-4-(4-methylpiperazin-1-yl)pyrido[2,3-e][1,2,4]triazolo[4,3-a]pyrazine], the IC50 in data set [1] was more than 100000 nM; in data set [4] it was 177 nM. In addition, the “Metabolic stability (CLh. int), Mouse” value in data set [2] is 17130 µL/min/mg. In data set [3], the “Metabolic stability (CLh. int), Human” value came to 5880 µL/min/mg.
`CN1CCN(c2nc3nc(C#N)c(Cl)cc3n3cnnc23)CC1` [Compound 21, 8-Chloro-4-(4-methylpiperazin-1-yl)pyrido[2,3-e][1,2,4]triazolo[4,3-a]pyrazin-7-carbonitrile]: in data set [2], the “Metabolic stability (CLh. int), Mouse” value was 7130 µL/min/mg. Besides, the “Metabolic stability (CLh. int), Human” value in data set [3] is 4870 µL/min/mg. The half-inhibitory concentration (IC50) in data set [4] was 270 nM.
In the case of `N#Cc1cnc2nc(N3CCNCC3)c3nncn3c2c1` [Compound 26, 4-(piperazin-1-yl)pyrido[2,3-e][1,2,4]triazolo[4,3-a]pyrazin-8-carbonitrile], the figures for the IC50 in data set [1] and in data set [4] were more than 100000 nM and 220 nM, respectively. In addition, the “Metabolic stability (CLh. int), Mouse” value in data set [2] turned out to be 6740 µL/min/mg. Besides, the “Metabolic stability (CLh. int), Human” value in data set [3] is 2450 µL/min/mg.
On to `CNC1CN(c2nc3nc(Cl)c(Cl)cc3n3cnnc23)C1` [Compound 27, 1-(7,8-Dichloropyrido[2,3-e][1,2,4]triazolo[4,3-a]pyrazin-4-yl)-N-methylazetidin-3-amine], for which the IC50 in data set [1] is more than 100000 nM. The “Metabolic stability (CLh. int), Mouse” value in data set [2] stood at 7270 µL/min/mg. Also, the “Metabolic stability (CLh. int), Human” value in data set [3] was found to be 1240 µL/min/mg.
For `CN1CCN(c2nc3ncc(Cl)cc3c3nc(C4CC4)nn23)CC1` [Compound 38, 9-Chloro-2-cyclopropyl-5-(4-methylpiperazin-1-yl)pyrido[3,2-e][1,2,4]triazolo[1,5-c]pyrimidine], in that order: more than 100000 nM, 14900 µL/min/mg and 7180 µL/min/mg.
For `Clc1cnc2nc(N3CCNCC3)n3nc(C4CC4)nc3c2c1` [Compound 39, 9-Chloro-2-cyclopropyl-5-(piperazin-1-yl)pyrido[3,2-e][1,2,4]triazolo[1,5-c]pyrimidine], the IC50 is more than 100000 nM in data set [1] and 130 nM in data set [4]. The “Metabolic stability (CLh. int), Mouse” value in data set [2] was found to be 5090 µL/min/mg. The “Metabolic stability (CLh. int), Human” value in data set [3] was 2840 µL/min/mg.
Molecule `Cn1cc2c(n1)c(N1CCNCC1)nc1ncc(Cl)cc12` [Compound 45, 8-Chloro-2-methyl-4-(piperazin-1-yl)-2H-pyrazolo[3,4-c][1,8]naphthylidine] returned an IC50 in data set [1] of more than 100000 nM. For the same molecule, in data set [2], the “Metabolic stability (CLh. int), Mouse” value is 12990 µL/min/mg. Besides, the “Metabolic stability (CLh. int), Human” value in data set [3] was determined as 3260 µL/min/mg.
Regarding `CN1CCN(c2nc3ncc(C(F)(F)F)cc3n3cnnc23)CC1` [Compound 53, 4-(4-Methylpiperazin-1-yl)-8-(trifluoromethyl)pyrido[2,3-e][1,2,4]triazolo[4,3-a]pyrazine], the “Metabolic stability (CLh. int), Mouse” value in data set [2] was determined as 3380 µL/min/mg. Besides, the “Metabolic stability (CLh. int), Human” value in data set [3] was found to be 2340 µL/min/mg. In data set [4], the IC50 came out at 280 nM.
Take `C#Cc1cnc2nc(N3CC(NC)C3)c3nncn3c2c1` [Compound 54, 1-(8-Ethynylpyrido[2,3-e][1,2,4]triazolo[4,3-a]pyrazin-4-yl)-N-methylazetidin-3-amine]: the IC50 was more than 100000 nM in data set [1] and 200 nM in data set [4]. For the same molecule, in data set [2], the “Metabolic stability (CLh. int), Mouse” value was determined as 680 µL/min/mg. Besides, the “Metabolic stability (CLh. int), Human” value in data set [3] came out at 1160 µL/min/mg.
The matching figures for `CNC1CN(c2nc3ncc(OC)cc3n3cnnc23)C1` [Compound 58, 1-(8-Methoxypyrido[2,3-e][1,2,4]triazolo[4,3-a]pyrazin-4-yl)-N-methylazetidin-3-amine]: more than 100000 nM, 210 nM, 12740 µL/min/mg and 2800 µL/min/mg.
The matching figures for `CNC1CN(c2nc3ncc(OC(F)F)cc3n3cnnc23)C1` [Compound 59, 1-(8-(Difluoromethoxy)pyrido[2,3-e][1,2,4]triazolo[4,3-a]pyrazin-4-yl)-N-methylazetidin-3-amine]: more than 100000 nM, 890 nM, 1230 µL/min/mg and 1320 µL/min/mg.
One may read the solubility as how much of the substance goes into solution per volume. A low value points to a poorly soluble substance. `Brc1cnc2nc(N3CCN4CCCC4C3)c3nncn3c2c1` (stereo not drawn) [Compound 74, 8-Bromo-4-(hexahydropyrrolo[1,2-a]pyrazin-2(1H)-yl)pyrido[2,3-e][1,2,4]triazolo[4,3-a]pyrazine] registered an IC50 in data set [4] of 60 nM. Moreover, in data set [5], the solubility at 1 h stood at 1530 µg/mL (≈ 4.08 mM) and the concentration in solution (solubility at 2 h) was 646 µg/mL (≈ 1.73 mM).
The matching figures for `Ic1cnc2nc(N3CCN4CCCC4C3)c3nncn3c2c1` (stereo not drawn) [Compound 75, 4-(Hexahydropyrrolo[1,2-a]pyrazin-2(1H)-yl)-8-iodopyrido[2,3-e][1,2,4]triazolo[4,3-a]pyrazine]: 64 nM, 2000 µg/mL (≈ 4.76 mM) and 723 µg/mL (≈ 1.72 mM).
The matching figures for `Cc1nc2c(N3CCN(C)CC3)nc3ncc(Cl)cc3n2n1` [Compound 98, 8-Chloro-2-methyl-4-(4-methylpiperazin-1-yl)pyrido[2,3-e][1,2,4]triazolo[1,5-a]pyrazine]: 11 nM, 1700 µg/mL (≈ 5.36 mM) and 1090 µg/mL (≈ 3.44 mM).
Regarding `CN(O)C1CN(c2nc3ncc(Br)cc3n3cnnc23)C1` [Compound 102, N-(1-(8-bromopyrido[2,3-e][1,2,4]triazolo[4,3-a]pyrazin-4-yl)azetidin-3-yl)-N-methylhydroxylamine], the IC50 in data set [1] was more than 100000 nM. Moreover, the “Metabolic stability (CLh. int), Mouse” value in data set [2] amounted to 6780 µL/min/mg. In addition, in data set [3], the “Metabolic stability (CLh. int), Human” value is 1990 µL/min/mg.
As for `CNC1CN(c2nc3ncc(Br)cc3n3cnnc23)C1.O=C(O)C(F)(F)F` [Compound 104, 1-(8-bromopyrido[2,3-e][1,2,4]triazolo[4,3-a]pyrazin-4-yl)-N-methylazetidin-3-amine 2,2,2-trifluoroacetate], the IC50 in data set [1] is more than 100000 nM. Besides, the IC50 in data set [4] (2,2,2-trifluoroacetate) was found to be 30 nM. In data set [5], this molecule had a solubility at 1 h of 1510 µg/mL and a solubility at 2 h of 1560 µg/mL.
For `CNC1CN(c2nc3ccc(Cl)nc3n3cnnc23)C1` [Compound 116, 1-(2-chloropyrido[3,2-e][1,2,4]triazolo[4,3-a]pyrazin-6-yl)-N-methylazetidin-3-amine], the IC50 in data set [1] is more than 100000 nM. Besides, the IC50 in data set [4] worked out at 240 nM. In data set [5], the concentration in solution (solubility at 1 h) was 1940 µg/mL (≈ 6.7 mM) and the solubility at 2 h was determined as 960 µg/mL (≈ 3.31 mM).
